Tests used:
[1] = test system: HepG2 cells; assay: Cytotoxicity assay by LDH release; assay type: cell-based, human; conditions: HepG2, ethanol 200 mM
Method: HepG2 human hepatoma cells (Korean Cell Line Bank, Seoul, Republic of Korea) were grown in RPMI1640 complete medium (Hyclone, Logan, Utah, USA) supplemented with 10% fetal bovine serum, 100 U/mL penicillin, and 100 μg/mL streptomycin (Invitrogen, Carlsbad, Calif., USA). The cultures were maintained under 5% CO2 at 37° C. in tissue culture flasks. For all experiments, cells were grown to >90% confluency and subjected to no more than 20 cell passages. The medium was changed every 2-3 days. Subconfluent cells were harvested and seeded at a density of 5×10^5 cells or 1.5×10^6 cells in poly-L-lysine-coated 35 mm or 60 mm culture plates. […]
Cytotoxicity of the GFM was investigated by measuring lactate dehydrogenase (LDH) release from HepG2 cells. That is, the cytotoxicity induced by the GFM in HepG2 cells was quantified by measuring LDH release at varying ranges of concentration (1-1,000 μg/mL). Cytotoxicity in experimental samples was determined as % LDH release, and the data from triplicate cultures were expressed as the mean±standard deviation. Concentration-dependent cytotoxicity determined as % LDH release was compared with non-treated control cells (Ctrl) and H2O2 (1 mM)-treated control was used as a positive control. […] Formazan was quantified spectrophotometrically by measuring its absorbance at 490 nm (Spectra Max 340, Molecular Devices, Sunnyvale, Calif., USA).

[2] = male, BALB/c, mouse, in vivo, 1 h
Method: Male BALB/c mice (7-week old) were purchased from Samtaco (Osan, Kyunggi-do, Republic of Korea), and were adapted to laboratory conditions (temperature: 20±2° C., relative humidity: 50%, light/dark cycle: 12 h) for 1 week. […] Perfused liver tissues from the treated mice were prepared using the Trizol method (Invitrogen, USA).
The enzymatic analysis was conducted with ALDH according to the method of Lundquist (Lundquist F. et al., Biochem. J., 68:172-177, 1958; Lundquist F. et al., In: Bergmeier H U (ed) Methods of enzymatic analysis. 2nd ed. Weinheim/New York and London, 230-257, 1974). This enzymatic test for alcohol utilizes the coenzyme NAD and ADH. The amount of NADH formed is stoichiometric to the amount of acetaldehyde. NADH was determined by light absorbance at 365 nm.

[3] = Hepatoprotective effect: serum GOT and GPT after oral ethanol; conditions: 20% ethanol only, 300 μl oral, 8 h after ethanol
Method: (§1) GFM suspended in saline solution was orally administrated (25 mg/kg) and CTD dried and then resolved in saline solution (50 mg/kg) was used as positive control (50 mg/kg). Before the administration, the experimental animals fasted 4 hours, and after the administration additional 1 hour of fasting was performed.

[4] = Side effects: body weights, organ masses, symptoms after administration; conditions: ethanol only (300 μl of 20% ethanol oral), 8 h
Method: as §1

[5] = test system: ALDH (acetaldehyde dehydrogenase) gene; assay: qPCR of ALDH mRNA in HepG2 cells; assay type: cell-based, human; conditions: HepG2, 10 μM, 1 and 2 h
Method: To evaluate the role of the GFM in ethanol metabolism, the genes of primary enzymes (ADH, ALDH, CYP2E1, and catalase) involved in eliminating ethanol from the body were quantified by real-time qPCR. Particularly, total RNA extracts from HepG2 cells (1×10^6 cells/well) treated with ethanol (0.2 mM) or GFM (10 μg/ml) were prepared using the Trizol method (Invitrogen) after 1, 2, 4 and 24 h after the treatment. And then, cDNA was synthesized from RNA by reverse transcription of 1 μg of total RNA using the Improm-II reverse transcription system (Promega) and oligo dT primers in a total volume of 20 μL. PCR amplification was performed using the primers described in Table 1 (Bioneer, Deajeon, Republic of Korea). Quantitative real-time PCR reactions were run on a Rotor-Gene 6000 (Corbett Research, Sydney, Australia) using SYBR Green PCR Master Mix (Qiagen, Valencia, Calif., USA) in 20 μL reaction mixtures. Each real-time-PCR master mix contained 10 μL 2× enzyme mastermix, 7.0 μL RNase free water, 1 μL of each primer (10 μM each) and 1 μL diluted template. […] Relative sample expression levels were calculated using Rotor-Gene 6000 Series Software 1.7 and were expressed relative to glyceraldehyde 3-phosphate dehydrogenase and corrected for between-run variability. Data for the experimental samples were expressed as a percentage of the internal control gene. […]

serum ethanol detected by GC [2] [%] | serum GOT [3] [IU/L] | serum GPT [3] [IU/L] | Compound | cytotoxicity (% LDH release) [1] | Body weight [4] [g] | Liver mass [4] [g] | Spleen mass [4] [g] | ALDH mRNA expression induced by fatty acid [5]
12.2 | 259.00 ± 17.44 | 150.50 ± 10.13 | CCO [ethanol] | not cytotoxic | 21.00 ± 0.57 | 1.31 ± 0.11 | 0.09 ± 0.01 | –
– | – | – | CCCCC/C=C\C/C=C\CCCCCCCC(=O)O [LA, linoleic acid] | – | – | – | – | effectiveness of GFM might be mainly from LA
